This note sets out measurements from patent US9376425B2, “Heterocyclic compounds as MDM2 inhibitors for the treatment of cancer” (AMGEN INC., priority 2011, dated 2016).

This assay deals with T1, human MDM2 (GST-hMDM2 1-188), interaction with biotinylated-p53 (1-83) (Homo sapiens, UniProt Q00987).
T1 construct: Amino acid residues 1-188 of human MDM2 were expressed; made in house; host or cells: Escherichia coli
T1 sequence (Q00987 1-188): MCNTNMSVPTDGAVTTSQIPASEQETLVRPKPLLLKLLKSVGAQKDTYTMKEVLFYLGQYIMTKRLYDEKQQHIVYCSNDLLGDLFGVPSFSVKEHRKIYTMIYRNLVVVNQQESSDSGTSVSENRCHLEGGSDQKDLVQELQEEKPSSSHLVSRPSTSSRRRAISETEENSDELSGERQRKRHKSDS
The assay can be described thus: improved HTRF assay (HTRF2 assay), inhibition of HDM2-p53 interaction. Format: binding. The conditions noted are these: 0.2 nM GST-hMDM2, 0.5 nM biotinylated-p53, 100 mM KF. The procedure, abridged:
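GST-hMDM2 preincubated 20 min at RT with serially diluted compound, then biotinylated p53 (1-83, E. coli) added for 60 min. Detection with SA-XLent, anti-GST cryptate and KF, equilibrated >4 h; final DMSO 2%. TR-FRET read; % inhibition calculated relative to nutlin-3.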
On the technique in general: Time-resolved FRET reads energy transfer from a long-lived donor to a nearby acceptor.
`CC(C)(C)S(=O)(=O)C[C@H](C1CC1)N1C(=O)[C@@H](CC(=O)Nc2ccccc2F)O[C@H](c2cccc(Cl)c2)[C@H]1c1ccc(Cl)cc1` (single isomer, unassigned) [Example 353, 2-((2R,5R,6R)-4-((S)-2-(tert-Butylsulfonyl)-1-cyclopropylethyl)-6-(3-chlorophenyl)-5-(4-chlorophenyl)-3-oxomorpholin-2-yl)-N-(2-fluorophenyl)acetamide or 2-((2S,5R,6R)-4-((S)-2-(tert-butylsulfonyl)-1-cyclopropylethyl)-6-(3-chlorophenyl)-5-(4-chlorophenyl)-3-oxomorpholin-2-yl)-N-(2-fluorophenyl)acetamide]: the 50% inhibitory concentration (IC50) (usually the concentration needed to halve the response being measured) came out at 9 nM. In other words, the single-digit nanomolar range.

In turn, `CC(C)(C)S(=O)(=O)C[C@H](C1CC1)N1C(=O)[C@@H](CC(=O)Nc2ccccn2)O[C@H](c2cccc(Cl)c2)[C@H]1c1ccc(Cl)cc1` (single isomer, unassigned) [Example 354, 2-((2R,5R,6R)-4-((S)-2-(tert-Butylsulfonyl)-1-cyclopropylethyl)-6-(3-chlorophenyl)-5-(4-chlorophenyl)-3-oxomorpholin-2-yl)-N-(pyridin-2-yl)acetamide or 2-((2S,5R,6R)-4-((S)-2-(tert-butylsulfonyl)-1-cyclopropylethyl)-6-(3-chlorophenyl)-5-(4-chlorophenyl)-3-oxomorpholin-2-yl)-N-(pyridin-2-yl)acetamide] showed an IC50 of 2 nM.

The molecule `CC(C)(C)S(=O)(=O)C[C@H](C1CC1)N1C(=O)[C@@H](CC(=O)Nc2ccccn2)O[C@H](c2cccc(Cl)c2)[C@H]1c1ccc(Cl)cc1` (single isomer, unassigned) [Example 355, 2-((2R,5R,6R)-4-((S)-2-(tert-Butylsulfonyl)-1-cyclopropylethyl)-6-(3-chlorophenyl)-5-(4-chlorophenyl)-3-oxomorpholin-2-yl)-N-(pyridin-2-yl)acetamide or 2-((2S,5R,6R)-4-((S)-2-(tert-butylsulfonyl)-1-cyclopropylethyl)-6-(3-chlorophenyl)-5-(4-chlorophenyl)-3-oxomorpholin-2-yl)-N-(pyridin-2-yl)acetamide] yielded a half-inhibitory concentration (IC50) of 4 nM.

In the case of `CC(C)(C)S(=O)(=O)C[C@H](C1CC1)N1C(=O)[C@@H](CC(N)=O)O[C@H](c2cccc(Cl)c2)[C@H]1c1ccc(Cl)cc1` (single isomer, unassigned) [Example 356, 2-((2R,5R,6R)-4-((S)-2-(tert-Butylsulfonyl)-1-cyclopropylethyl)-6-(3-chlorophenyl)-5-(4-chlorophenyl)-3-oxomorpholin-2-yl)acetamide or 2-((2S,5R,6R)-4-((S)-2-(tert-butylsulfonyl)-1-cyclopropylethyl)-6-(3-chlorophenyl)-5-(4-chlorophenyl)-3-oxomorpholin-2-yl)acetamide], the IC50 stood at 10 nM.

Molecule `CC(C)(C)S(=O)(=O)C[C@H](C1CC1)N1C(=O)[C@@H](CC(N)=O)O[C@H](c2cccc(Cl)c2)[C@H]1c1ccc(Cl)cc1` (single isomer, unassigned) [Example 357, 2-((2R,5R,6R)-4-((S)-2-(tert-Butylsulfonyl)-1-cyclopropylethyl)-6-(3-chlorophenyl)-5-(4-chlorophenyl)-3-oxomorpholin-2-yl)acetamide or 2-((2S,5R,6R)-4-((S)-2-(tert-butylsulfonyl)-1-cyclopropylethyl)-6-(3-chlorophenyl)-5-(4-chlorophenyl)-3-oxomorpholin-2-yl)acetamide] had an IC50 of 6 nM.

In turn, `NC(=O)C[C@H]1O[C@H](c2cccc(Cl)c2)[C@@H](c2ccc(Cl)cc2)N([C@H](CN(c2c(F)cccc2F)S(=O)(=O)C2CC2)C2CC2)C1=O` (single isomer, unassigned) [Example 358, 2-((2R,5R,6R)-6-(3-Chlorophenyl)-5-(4-chlorophenyl)-4-((S)-1-cyclopropyl-2-(N-(2,6-difluorophenyl)cyclopropanesulfonamido)ethyl)-3-oxomorpholin-2-yl)acetamide or 2-((2S,5R,6R)-6-(3-chlorophenyl)-5-(4-chlorophenyl)-4-((S)-1-cyclopropyl-2-(N-(2,6-difluorophenyl)cyclopropanesulfonamido)ethyl)-3-oxomorpholin-2-yl)acetamide] showed an IC50 of less than 1 nM.

With `NC(=O)C[C@H]1O[C@H](c2cccc(Cl)c2)[C@@H](c2ccc(Cl)cc2)N([C@H](CN(c2c(F)cccc2F)S(=O)(=O)C2CC2)C2CC2)C1=O` (single isomer, unassigned) [Example 359, 2-((2R,5R,6R)-6-(3-Chlorophenyl)-5-(4-chlorophenyl)-4-((S)-1-cyclopropyl-2-(N-(2,6-difluorophenyl)cyclopropanesulfonamido)ethyl)-3-oxomorpholin-2-yl)acetamide or 2-((2S,5R,6R)-6-(3-chlorophenyl)-5-(4-chlorophenyl)-4-((S)-1-cyclopropyl-2-(N-(2,6-difluorophenyl)cyclopropanesulfonamido)ethyl)-3-oxomorpholin-2-yl)acetamide], the IC50 was less than 1 nM.

Molecule `NC(=O)C[C@H]1O[C@H](c2cccc(Cl)c2)[C@@H](c2ccc(Cl)cc2)N([C@H](CN(c2ccccc2)S(=O)(=O)C2CC2)C2CC2)C1=O` (single isomer, unassigned) [Example 360, 2-((2R,5R,6R)-6-(3-Chlorophenyl)-5-(4-chlorophenyl)-4-((S)-1-cyclopropyl-2-(N-phenylcyclopropanesulfonamido)ethyl)-3-oxomorpholin-2-yl)acetamide or 2-((2S,5R,6R)-6-(3-chlorophenyl)-5-(4-chlorophenyl)-4-((S)-1-cyclopropyl-2-(N-phenylcyclopropanesulfonamido)ethyl)-3-oxomorpholin-2-yl)acetamide] gave a concentration for half-maximal inhibition (IC50) of 1 nM.

`NC(=O)C[C@H]1O[C@H](c2cccc(Cl)c2)[C@@H](c2ccc(Cl)cc2)N([C@H](CN(c2ccccc2)S(=O)(=O)C2CC2)C2CC2)C1=O` (single isomer, unassigned) [Example 361, 2-((2R,5R,6R)-6-(3-Chlorophenyl)-5-(4-chlorophenyl)-4-((S)-1-cyclopropyl-2-(N-phenylcyclopropanesulfonamido)ethyl)-3-oxomorpholin-2-yl)acetamide or 2-((2S,5R,6R)-6-(3-chlorophenyl)-5-(4-chlorophenyl)-4-((S)-1-cyclopropyl-2-(N-phenylcyclopropanesulfonamido)ethyl)-3-oxomorpholin-2-yl)acetamide] registered an IC50 of less than 1 nM.

Molecule `CC(C)(C)S(=O)(=O)C[C@H](CC(F)(F)F)N1C(=O)[C@@H](CC(N)=O)O[C@H](c2cccc(Cl)c2)[C@H]1c1ccc(Cl)cc1` (single isomer, unassigned) [Example 362, 2-((2R,5R,6R)-4-((S)-1-(tert-Butylsulfonyl)-4,4,4-trifluorobutan-2-yl)-6-(3-chlorophenyl)-5-(4-chlorophenyl)-3-oxomorpholin-2-yl)acetamide or 2-((2S,5R,6R)-4-((S)-1-(tert-butylsulfonyl)-4,4,4-trifluorobutan-2-yl)-6-(3-chlorophenyl)-5-(4-chlorophenyl)-3-oxomorpholin-2-yl)acetamide] gave an IC50 of 20 nM. In other words, the double-digit nanomolar range.
